Experimental findings from ChEMBL document CHEMBL4196112, “Design of Selective sPLA2-X Inhibitor (-)-2-{2-[Carbamoyl-6-(trifluoromethoxy)-1H-indol-1-yl]pyridine-2-yl}propanoic Acid” (ACS Med Chem Lett, 2018) are described below.

The structures appear in SMILES notation. Calls of active or inactive are those of the source. The calls are words filed in the database; no cut-off is given here.

Experiment [1] has as its target Phospholipase A2, membrane associated (Homo sapiens) (UniProt P14555). Kind of experiment: Inhibition of sPLA2-2A (unknown origin) at 10 uM using 1-palmitoyl-2-oleoyl-sn-glycero-3-phosphocholine as substrate pretreated for 20 mins followed by substrate addition and measured after 60 mins by NEFA based assay.
Experiment [2] addresses T1, Group 10 secretory phospholipase A2 (Homo sapiens, UniProt O15496).
T1 sequence (O15496 whole entry): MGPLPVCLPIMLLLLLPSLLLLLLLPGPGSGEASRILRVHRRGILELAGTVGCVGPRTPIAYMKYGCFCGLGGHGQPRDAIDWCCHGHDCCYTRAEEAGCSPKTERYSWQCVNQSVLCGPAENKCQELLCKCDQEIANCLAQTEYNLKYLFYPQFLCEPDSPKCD
The experiment in a line: Inhibition of sPLA2-10 (unknown origin) using 1-palmitoyl-2-oleoyl-sn-glycero-3-phosphocholine as substrate pretreated for 20 mins followed by substrate addition and measured after 60 mins by NEFA based assay.

The target in experiment [3] is T2, Phospholipase A2 group V (Homo sapiens) (UniProt P39877).
T2 sequence (whole entry): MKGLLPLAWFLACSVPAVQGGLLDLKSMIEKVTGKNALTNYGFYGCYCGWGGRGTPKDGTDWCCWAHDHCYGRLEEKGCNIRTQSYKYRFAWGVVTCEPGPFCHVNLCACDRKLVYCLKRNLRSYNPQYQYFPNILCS
The experiment in a line: Inhibition of sPLA2-5 (unknown origin) at 10 uM using 1-palmitoyl-2-oleoyl-sn-glycero-3-phosphocholine as substrate pretreated for 20 mins followed by substrate addition and measured after 60 mins by NEFA based assay.

Experiment [4] relates to Mus musculus. The experiment in a line: Anti-atherosclerosis activity in ApoE knockout pro-atherogenic western diet-induced Tac mouse carotid artery ligation model of atherosclerosis assessed as reduction in plasma esterified cholesterol levels at 75 umol/kg/day mixed with food measured for 3 weeks. The format is functional, organism-based.
The test system of experiment [5] is Mus musculus. Kind of experiment: Anti-atherosclerosis activity in ApoE knockout pro-atherogenic western diet-induced Tac mouse carotid artery ligation model of atherosclerosis assessed as reduction in plasma lipoprotein-associated cholesterol fraction levels at 150 umol/kg/day mixed with food measured for 3 weeks. The format is functional, organism-based.
In experiment [6] the test system is Mus musculus. The experiment in a line: Anti-atherosclerosis activity in ApoE knockout pro-atherogenic western diet-induced Tac mouse carotid artery ligation model of atherosclerosis assessed as reduction in plasma esterified cholesterol levels at 150 umol/kg/day mixed with food measured for 3 weeks. The format is functional, organism-based.
For experiment [7], the system named is Mus musculus. Kind of experiment: Anti-atherosclerosis activity in ApoE knockout pro-atherogenic western diet-induced Tac mouse carotid artery ligation model of atherosclerosis assessed as reduction in plasma lipoprotein-associated cholesterol fraction levels at 75 umol/kg/day mixed with food measured for 3 weeks. The format is functional, organism-based.
The subject of experiment [8] is Mus musculus. Kind of experiment: Anti-atherosclerosis activity in ApoE knockout pro-atherogenic western diet-induced Tac mouse carotid artery ligation model of atherosclerosis assessed as reduction in heart rate at 75 to 150 umol/kg/day mixed with food measured for 3 weeks by doppler echocardiography. The format is functional, organism-based.
Experiment [9] deals with Mus musculus. The experiment in a line: Anti-atherosclerosis activity in ApoE knockout pro-atherogenic western diet-induced Tac mouse carotid artery ligation model of atherosclerosis assessed as reduction in neointima and media formation at 75 to 150 umol/kg/day mixed with food measured for 3 weeks. It is filed as functional, organism-based.
Experiment [10] has as its system Mus musculus. The experiment in a line: Anti-atherosclerosis activity in ApoE knockout pro-atherogenic western diet-induced Tac mouse carotid artery ligation model of atherosclerosis assessed as reduction in plasma triglyceride levels at 75 umol/kg/day mixed with food measured for 3 weeks. The format is functional, organism-based.
Experiment [11] concerns Mus musculus. The experiment in a line: Anti-atherosclerosis activity in ApoE knockout pro-atherogenic western diet-induced Tac mouse carotid artery ligation model of atherosclerosis assessed as reduction in plasma free cholesterol levels at 150 umol/kg/day mixed with food measured for 3 weeks. The format is functional, organism-based.
Experiment [12] concerns Mus musculus. The experiment in a line: Anti-atherosclerosis activity in ApoE knockout pro-atherogenic western diet-induced Tac mouse carotid artery ligation model of atherosclerosis assessed as reduction in plasma free fatty acid levels at 75 umol/kg/day mixed with food measured for 3 weeks. It is filed as functional, organism-based.
The species named for experiment [13] is Homo sapiens. The experiment in a line: Selectivity ratio of IC50 for sPLA2-2A (unknown origin) to IC50 for sPLA2-10 (unknown origin).
Experiment [14] concerns Mus musculus. Kind of experiment: Anti-atherosclerosis activity in ApoE knockout pro-atherogenic western diet-induced Tac mouse carotid artery ligation model of atherosclerosis assessed as reduction in thickness of artery wall at 75 to 150 umol/kg/day mixed with food measured for 3 weeks by ultrasound biomicroscopy. It is filed as functional, organism-based.
Experiment [15] addresses Group 10 secretory phospholipase A2 (Homo sapiens) (UniProt O15496).
Description: Inhibition of recombinant human sPLA2-10 using human HDL as substrate pretreated for 20 mins followed by substrate addition and measured after 60 mins by NEFA based assay
Experiment [16] relates to Mus musculus. Kind of experiment: Anti-atherosclerosis activity in ApoE knockout pro-atherogenic western diet-induced Tac mouse carotid artery ligation model of atherosclerosis assessed as reduction in plasma free fatty acid levels at 150 umol/kg/day mixed with food measured for 3 weeks. It is filed as functional, organism-based.
Experiment [17] addresses Group 10 secretory phospholipase A2 (Mus musculus) (UniProt Q9QXX3). The experiment in a line: Inhibition of mouse sPLA2-10.
The subject of experiment [18] is Mus musculus. Kind of experiment: Anti-atherosclerosis activity in ApoE knockout pro-atherogenic western diet-induced Tac mouse carotid artery ligation model of atherosclerosis assessed as increase in lumen thickness at 75 to 150 umol/kg/day mixed with food measured for 3 weeks by ultrasound biomicroscopy. The format is functional, organism-based.
Experiment [19] relates to Mus musculus. The experiment in a line: Anti-atherosclerosis activity in ApoE knockout pro-atherogenic western diet-induced Tac mouse carotid artery ligation model of atherosclerosis assessed as reduction in plasma free cholesterol levels at 75 umol/kg/day mixed with food measured for 3 weeks. It is filed as functional, organism-based.
For experiment [20], the species on record is Homo sapiens. The experiment in a line: Selectivity ratio of IC50 for sPLA2-5 (unknown origin) to IC50 for sPLA2-10 (unknown origin).
In experiment [21] the test system is Mus musculus. Kind of experiment: Anti-atherosclerosis activity in ApoE knockout pro-atherogenic western diet-induced Tac mouse carotid artery ligation model of atherosclerosis assessed as reduction in plasma triglyceride levels at 150 umol/kg/day mixed with food measured for 3 weeks. The format is functional, organism-based.
In experiment [22] the test system is Mus musculus. Kind of experiment: Anti-atherosclerosis activity in ApoE knockout pro-atherogenic western diet-induced Tac mouse carotid artery ligation model of atherosclerosis assessed as reduction in coronary flow reserve at 75 to 150 umol/kg/day mixed with food measured for 3 weeks by doppler echocardiography. The format is functional, organism-based.

Chain of Phospholipase A2, membrane associated (Homo sapiens) (P14555 whole entry): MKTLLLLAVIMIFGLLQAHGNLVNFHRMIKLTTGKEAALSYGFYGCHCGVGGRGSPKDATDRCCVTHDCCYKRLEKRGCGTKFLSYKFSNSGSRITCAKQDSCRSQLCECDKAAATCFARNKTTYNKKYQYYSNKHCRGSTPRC
Chain of Group 10 secretory phospholipase A2 (Mus musculus) (Q9QXX3 whole entry): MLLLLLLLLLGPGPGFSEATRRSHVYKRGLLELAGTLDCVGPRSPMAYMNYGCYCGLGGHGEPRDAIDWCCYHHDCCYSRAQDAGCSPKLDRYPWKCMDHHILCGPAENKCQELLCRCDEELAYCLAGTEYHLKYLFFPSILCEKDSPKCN

Broadly, the IC50 is the concentration at which inhibition is half-maximal. Consider `NC(=O)c1cc2ccc(OC(F)(F)F)cc2n1-c1ccc(=O)n(CCC(=O)O)c1`, for which the inhibition entry in [1] and in experiment [3] was “inactive” throughout. Also, the IC50 in experiment [2] amounted to 4800 nM.

What is called IC90 is the concentration at which the effect reaches the 90% level. A lower IC90 goes with an effect from little substance. Consider `CC(CC(=O)O)c1cccc(-n2c(C(N)=O)cc3ccc(OC(F)(F)F)cc32)n1` (stereo in doubt; (-)-17), for which the result in [4], in [7], in [8], in experiment [9], in experiment [10] and in experiment [12] was inactive. For the same compound, the result in experiment [14], in experiment [18], in [19] and in [22] was inactive. The result in experiment [5], in [6], in experiment [11], in [16] and in experiment [21] was Active. Moreover, the Ratio IC50 stood at 45 in experiment [13] and 390 in [20]. The figures for the IC90 in experiment [15] and in experiment [17] were 362 nM and 820 nM, respectively.
